Reference: the supplement of paper PMC10307832

Key:
Assay in all cases: relative viability (nuclei count vs DMSO), 5 days (fraction); higher = more cells survive
[1] = test system: Calu-6
Outline: (§1)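 One day after seeding in 1536-well plates, lung cancer cell lines were dosed by pin tool. Dosing was either single-drug or a fixed anchor-drug dose plus five library-drug doses (not always all listed) in √10 steps. After 5 days, nuclei were stained in one fix-and-stain step and counted on 4× images, and relative viability is the nuclei count of treated wells over that of vehicle wells, given as the median of duplicate plates.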

[2] = test system: EKVX
Outline: as §1

[3] = test system: NCI-H1299
Outline: as §1

[4] = test system: EBC-1
Outline: as §1

[5] = test system: ChaGo-K-1
Outline: as §1

[6] = test system: NCI-H1703
Outline: as §1

[7] = test system: NCI-H1666
Outline: as §1

[8] = test system: LC-2-ad
Outline: as §1

[9] = test system: A549
Outline: as §1

[10] = test system: IA-LM
Outline: as §1

[11] = test system: NCI-H1623
Outline: as §1

Compound: CN1CCN(CCOc2cc(OC3CCOCC3)c3c(Nc4c(Cl)ccc5c4OCO5)ncnc3c2)CC1 [Saracatinib] + COc1cc2c(Oc3ccc(NC(=O)C4(C(=O)Nc5ccc(F)cc5)CC4)cc3F)ccnc2cc1OCCCN1CCOCC1 [Foretinib] (partner 0.25 µM)
- relative viability ([1]; first compound 0.02 µM): 0.813
- relative viability ([1]; first compound 0.2 µM): 0.579
- relative viability ([1]; first compound 0.6325 µM): 0.684
- relative viability ([1]; first compound 2 µM): 0.581
- relative viability ([2]; first compound 0.02 µM): 0.866
- relative viability ([2]; first compound 0.6325 µM): 0.268
- relative viability ([2]; first compound 2 µM): 0.401
- relative viability ([3]; first compound 0.02 µM): 1.11
- relative viability ([3]; first compound 0.2 µM): 1.08
- relative viability ([3]; first compound 0.6325 µM): 1.21
- relative viability ([3]; first compound 2 µM): 1.14
- relative viability ([4]; first compound 0.02 µM): 0.0938
- relative viability ([4]; first compound 0.2 µM): 0.111
- relative viability ([4]; first compound 0.6325 µM): 0.108
- relative viability ([4]; first compound 2 µM): 0.106
- relative viability ([5]; first compound 0.02 µM): 0.943
- relative viability ([5]; first compound 0.2 µM): 0.699
- relative viability ([5]; first compound 0.6325 µM): 0.973
- relative viability ([5]; first compound 2 µM): 0.874
- relative viability ([6]; first compound 0.02 µM): 0.38
- relative viability ([6]; first compound 0.2 µM): 0.319
- relative viability ([6]; first compound 0.6325 µM): 0.251
- relative viability ([6]; first compound 2 µM): 0.259
- relative viability ([7]; first compound 0.02 µM): 1.04
- relative viability ([7]; first compound 0.2 µM): 0.836
- relative viability ([7]; first compound 0.6325 µM): 1.27
- relative viability ([7]; first compound 2 µM): 1.14
- relative viability ([8]; first compound 0.02 µM): 0.85
- relative viability ([8]; first compound 0.2 µM): 0.812
- relative viability ([8]; first compound 0.6325 µM): 0.934
- relative viability ([8]; first compound 2 µM): 0.658
- relative viability ([9]; first compound 0.02 µM): 0.864
- relative viability ([9]; first compound 0.6325 µM): 0.8
- relative viability ([9]; first compound 2 µM): 0.841
- relative viability ([10]; first compound 0.02 µM): 1.13
- relative viability ([10]; first compound 0.2 µM): 1.28
- relative viability ([10]; first compound 0.6325 µM): 1.01
- relative viability ([10]; first compound 2 µM): 0.912
- relative viability ([11]; first compound 0.02 µM): 0.876
- relative viability ([11]; first compound 0.2 µM): 0.723
- relative viability ([11]; first compound 0.6325 µM): 0.908
- relative viability ([11]; first compound 2 µM): 0.681

Compound: CCNC(=O)c1noc(-c2cc(C(C)C)c(O)cc2O)c1-c1ccc(CN2CCOCC2)cc1 [Luminespib] + N=C(N)NC(=N)NCCc1ccccc1 [Phenformin] (partner 250 µM)
- relative viability ([2]; first compound 0.002 µM): 0.236
- relative viability ([2]; first compound 0.006325 µM): 0.209
- relative viability ([2]; first compound 0.06325 µM): 0.223
- relative viability ([2]; first compound 0.2 µM): 0.104
- relative viability ([5]; first compound 0.002 µM): 0.504
- relative viability ([5]; first compound 0.006325 µM): 0.456
- relative viability ([5]; first compound 0.02 µM): 0.467
- relative viability ([5]; first compound 0.06325 µM): 0.303
- relative viability ([5]; first compound 0.2 µM): 0.152
- relative viability ([7]; first compound 0.002 µM): 0.583
- relative viability ([7]; first compound 0.006325 µM): 0.533
- relative viability ([7]; first compound 0.02 µM): 0.574
- relative viability ([7]; first compound 0.06325 µM): 0.532
- relative viability ([7]; first compound 0.2 µM): 0.538
- relative viability ([8]; first compound 0.002 µM): 0.531
- relative viability ([8]; first compound 0.006325 µM): 0.497
- relative viability ([8]; first compound 0.02 µM): 0.551
- relative viability ([8]; first compound 0.06325 µM): 0.25
- relative viability ([8]; first compound 0.2 µM): 0.231
- relative viability ([9]; first compound 0.002 µM): 0.166
- relative viability ([9]; first compound 0.006325 µM): 0.132
- relative viability ([9]; first compound 0.02 µM): 0.0856
- relative viability ([9]; first compound 0.06325 µM): 0.0194
- relative viability ([9]; first compound 0.2 µM): 0.0225
- relative viability ([11]; first compound 0.002 µM): 0.55
- relative viability ([11]; first compound 0.006325 µM): 0.536
- relative viability ([11]; first compound 0.02 µM): 0.493
- relative viability ([11]; first compound 0.06325 µM): 0.407
- relative viability ([11]; first compound 0.2 µM): 0.307
